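All cell lines were grown in 96-well plates and treated with compound for 48 hours. Here, GI50 denotes the concentration required for 50% inhibition of growth. TGI marks complete inhibition of growth.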
Key:
Experiment in all cases: NCI tumour cell line growth inhibition, 48 h
UACC-62 melanoma = tested on: UACC-62 melanoma
MALME-3M melanoma = tested on: MALME-3M melanoma
SN12C renal = tested on: SN12C renal
HS 578T breast = tested on: HS 578T breast
NCI-H460 lung = tested on: NCI-H460 lung
SK-MEL-2 melanoma = tested on: SK-MEL-2 melanoma
HCC-2998 colon = tested on: HCC-2998 colon
LOX IMVI melanoma = tested on: LOX IMVI melanoma
OVCAR-3 ovarian = tested on: OVCAR-3 ovarian
HCT-116 colon = tested on: HCT-116 colon
MDA-MB-231 breast = tested on: MDA-MB-231 breast
HOP-62 NSCLC = tested on: HOP-62 NSCLC
M14 melanoma = tested on: M14 melanoma
RXF 393 renal = tested on: RXF 393 renal
IGROV1 ovarian = tested on: IGROV1 ovarian
MOLT-4 leukemia = tested on: MOLT-4 leukemia
OVCAR-5 ovarian = tested on: OVCAR-5 ovarian
SF-268 CNS = tested on: SF-268 CNS
A498 renal = tested on: A498 renal
SNB-75 CNS = tested on: SNB-75 CNS
COLO 205 colon = tested on: COLO 205 colon
K-562 leukemia = tested on: K-562 leukemia
NCI-H522 lung = tested on: NCI-H522 lung
PC-3 prostate = tested on: PC-3 prostate
NCI-H226 lung = tested on: NCI-H226 lung
SK-MEL-5 melanoma = tested on: SK-MEL-5 melanoma
UACC-257 melanoma = tested on: UACC-257 melanoma
SNB-19 CNS = tested on: SNB-19 CNS
ACHN renal = tested on: ACHN renal
DU-145 prostate = tested on: DU-145 prostate
BT-549 breast = tested on: BT-549 breast
SR leukemia = tested on: SR leukemia
T-47D breast = tested on: T-47D breast
OVCAR-8 ovarian = tested on: OVCAR-8 ovarian
SW-620 colon = tested on: SW-620 colon
HT29 colon = tested on: HT29 colon
SK-OV-3 ovarian = tested on: SK-OV-3 ovarian
SF-539 CNS = tested on: SF-539 CNS
HCT-15 colon = tested on: HCT-15 colon
NCI/ADR-RES ovarian = tested on: NCI/ADR-RES ovarian
EKVX NSCLC = tested on: EKVX NSCLC
RPMI-8226 leukemia = tested on: RPMI-8226 leukemia
SF-295 CNS = tested on: SF-295 CNS
CAKI-1 renal = tested on: CAKI-1 renal
HL-60(TB) leukemia = tested on: HL-60(TB) leukemia
MDA-MB-435 = tested on: MDA-MB-435
OVCAR-4 ovarian = tested on: OVCAR-4 ovarian
U251 CNS = tested on: U251 CNS
TK-10 renal = tested on: TK-10 renal
MCF7 breast = tested on: MCF7 breast
SK-MEL-28 melanoma = tested on: SK-MEL-28 melanoma
KM12 colon = tested on: KM12 colon
UO-31 renal = tested on: UO-31 renal
786-0 renal = tested on: 786-0 renal
A549 NSCLC = tested on: A549 NSCLC
CCRF-CEM leukemia = tested on: CCRF-CEM leukemia
HOP-92 NSCLC = tested on: HOP-92 NSCLC

COc1ccc(CCOc2cc3c(cc2OC)CCN(C(=O)NCc2cocn2)C3c2ccc(C)cc2C)cc1 (centres undefined)
GI50 (UACC-62 melanoma): 0.495 µM
TGI (UACC-62 melanoma): 5.93 µM
GI50 (MALME-3M melanoma): 1.49 µM
TGI (MALME-3M melanoma): 11.7 µM
GI50 (SN12C renal): 0.831 µM
TGI (SN12C renal): 4.85 µM
GI50 (HS 578T breast): 0.845 µM
TGI (HS 578T breast): 5.15 µM
GI50 (NCI-H460 lung): 0.374 µM
TGI (NCI-H460 lung): 3.81 µM
GI50 (SK-MEL-2 melanoma): 0.946 µM
TGI (SK-MEL-2 melanoma): 3.89 µM
GI50 (HCC-2998 colon): 1.32 µM
TGI (HCC-2998 colon): > 35 µM
GI50 (LOX IMVI melanoma): 0.388 µM
TGI (LOX IMVI melanoma): 4.61 µM
GI50 (OVCAR-3 ovarian): 0.603 µM
TGI (OVCAR-3 ovarian): 10.3 µM
GI50 (HCT-116 colon): 0.404 µM
TGI (HCT-116 colon): 21.8 µM
GI50 (MDA-MB-231 breast): 0.834 µM
TGI (MDA-MB-231 breast): 6.49 µM
GI50 (HOP-62 NSCLC): 1.02 µM
TGI (HOP-62 NSCLC): 17.1 µM
GI50 (M14 melanoma): 0.765 µM
TGI (M14 melanoma): 5.74 µM
GI50 (RXF 393 renal): 0.425 µM
TGI (RXF 393 renal): 2.54 µM
GI50 (IGROV1 ovarian): 0.905 µM
TGI (IGROV1 ovarian): > 100 µM
GI50 (MOLT-4 leukemia): 0.537 µM
TGI (MOLT-4 leukemia): > 24.8 µM
GI50 (OVCAR-5 ovarian): 1.35 µM
TGI (OVCAR-5 ovarian): > 100 µM
GI50 (SF-268 CNS): 0.94 µM
TGI (SF-268 CNS): 8.92 µM
GI50 (A498 renal): 1.48 µM
TGI (A498 renal): 6.43 µM
GI50 (SNB-75 CNS): 0.761 µM
TGI (SNB-75 CNS): 5.26 µM
GI50 (COLO 205 colon): 0.835 µM
TGI (COLO 205 colon): 2.76 µM
GI50 (K-562 leukemia): 0.355 µM
TGI (K-562 leukemia): > 55.2 µM
GI50 (NCI-H522 lung): 0.243 µM
TGI (NCI-H522 lung): 0.634 µM
GI50 (PC-3 prostate): 0.631 µM
TGI (PC-3 prostate): > 35.1 µM
GI50 (NCI-H226 lung): 1.02 µM
TGI (NCI-H226 lung): 5.16 µM
GI50 (SK-MEL-5 melanoma): 0.509 µM
TGI (SK-MEL-5 melanoma): 1.39 µM
GI50 (UACC-257 melanoma): 1.39 µM
TGI (UACC-257 melanoma): 19.8 µM
GI50 (SNB-19 CNS): 1.6 µM
TGI (SNB-19 CNS): 21.9 µM
GI50 (ACHN renal): 0.628 µM
TGI (ACHN renal): 8.89 µM
GI50 (DU-145 prostate): 0.79 µM
TGI (DU-145 prostate): 5.89 µM
GI50 (BT-549 breast): 1.01 µM
TGI (BT-549 breast): 3.57 µM
GI50 (SR leukemia): 0.341 µM
TGI (SR leukemia): 2.03 µM
GI50 (T-47D breast): 1.06 µM
TGI (T-47D breast): 9.02 µM
GI50 (OVCAR-8 ovarian): 0.358 µM
TGI (OVCAR-8 ovarian): 10.1 µM
GI50 (SW-620 colon): 0.507 µM
TGI (SW-620 colon): > 100 µM
GI50 (HT29 colon): 0.371 µM
TGI (HT29 colon): 2.15 µM
GI50 (SK-OV-3 ovarian): 1.26 µM
TGI (SK-OV-3 ovarian): 40.7 µM
GI50 (SF-539 CNS): 0.346 µM
TGI (SF-539 CNS): 1.63 µM
GI50 (HCT-15 colon): 0.407 µM
TGI (HCT-15 colon): > 37.5 µM
GI50 (NCI/ADR-RES ovarian): 0.61 µM
TGI (NCI/ADR-RES ovarian): > 34.4 µM
GI50 (EKVX NSCLC): 3.14 µM
TGI (EKVX NSCLC): > 100 µM
GI50 (RPMI-8226 leukemia): 0.37 µM
TGI (RPMI-8226 leukemia): 1.66 µM
GI50 (SF-295 CNS): 0.897 µM
TGI (SF-295 CNS): 7.03 µM
GI50 (CAKI-1 renal): 0.74 µM
TGI (CAKI-1 renal): 7.24 µM
GI50 (HL-60(TB) leukemia): 0.273 µM
TGI (HL-60(TB) leukemia): 0.833 µM
GI50 (MDA-MB-435): 0.296 µM
TGI (MDA-MB-435): 0.919 µM
GI50 (OVCAR-4 ovarian): 1.51 µM
TGI (OVCAR-4 ovarian): > 100 µM
GI50 (U251 CNS): 0.605 µM
TGI (U251 CNS): 4.53 µM
GI50 (TK-10 renal): 2.96 µM
TGI (TK-10 renal): 26.7 µM
GI50 (MCF7 breast): 0.452 µM
TGI (MCF7 breast): > 38.7 µM
GI50 (SK-MEL-28 melanoma): 1.01 µM
TGI (SK-MEL-28 melanoma): 7.29 µM
GI50 (KM12 colon): 0.542 µM
TGI (KM12 colon): 8.2 µM
GI50 (UO-31 renal): 1.18 µM
TGI (UO-31 renal): 14.2 µM
GI50 (786-0 renal): 0.617 µM
TGI (786-0 renal): 8.11 µM
GI50 (A549 NSCLC): 1.08 µM
TGI (A549 NSCLC): > 100 µM
GI50 (CCRF-CEM leukemia): 0.458 µM
TGI (CCRF-CEM leukemia): 9.66 µM
GI50 (HOP-92 NSCLC): 3.47 µM
TGI (HOP-92 NSCLC): 18.2 µM

From PubChem BioAssay (NCI)
